Results: US8110599B2 (priority 2006, dated 2012)
In brackets after ≈: the same amount, converted by molar mass. Read-outs that look alike come from different tables or passages of the source.

Key:
[1] = tested on: human leukemia K562 cells; test: MTT assay, in vitro killing of K562 cells; assay type: cell-based; details: for IC50: Homo sapiens
Protocol: (1) AMP Na: An AMP-Na solution was prepared according to the method of Example 1 at an AMP:Na2CO3 ratio (w/w) of 5:3, which was then diluted 10 times with PBS (pH 6.5) to obtain the AMP-Na stock solution. The stock solution was further diluted by PBS (pH 7.4) to the concentration for cell exposure.
All the drug solutions described above were freshly prepared before use, and the final concentration for cell exposure was 100, 50, 25, 12.5, and 6.25 μg/ml, respectively.
K562 cells were cultured in RPMI1640 culture media supplemented with 10% calf serum, 100 U/ml of penicillin and streptomycin.
1. K562 cells at their log growth period were collected and centrifuged at 1,000 rpm for 5 minutes. The supernatant was discarded, and the cell density was adjusted to 1×10^5 cells/ml with RPMI 1640 cell culture media.
2. Ten microliter of the drug solution at various concentrations and 90 μl of the cell suspension or cell culture media were added to each well of the 96-well plate, followed by incubation in a CO2 incubator.
3. Cells were cultured for another 48-hour or 72-hour. Ten microliter of the MTT solution was added to per well 4 hours before the end of the experiment. Then, the solution was discarded and 100 μl of 10% SDS was added for termination of the experiment.
4. The absorbance of the solution was measured at 570 nm using a plate reader after being shaken on a shaker for 10 minutes. Results were printed out and recorded.
The inhibition ratio (%) was calculated from the following equation: […]
IC50 was calculated by linear regression of drug concentration v.s. cell inhibition ratio.

[2] = Solubility and solution stability; assay type: physicochemical; details: pure AMP, white powder
in vivo = details: both, Kunming, mouse
Protocol: Major organs of dead animals were removed, fixed, and subject to pathological study. […] Normal saline (36.25 ml) and 37% HCl (0.75 ml) were added to obtained the AMP stock solution with a concentration of 50 mg/ml and pH of 7.3 (concentrations of solvents including PEG 400, propanediol, and ethanol were 0.03, 0.0445, and 0.015 g/ml, respectively). […] The stock solution was further diluted in normal saline to the required concentration, and was i.v. or i.p. administered to mice at 0.2 ml/10 g bodyweight.
Both male and female Kuming mice of SPF grade, weighing 18-22 g, were used in the experiment. […] All data were analyzed by DAS software.

S180 carcinoma = tested on: S180 carcinoma
Protocol: S-180 cells were inoculated subcutaneously to mice at the axillary region at 0.5-1×10^6 cells/mouse. […] The drugs were given 6-8 times in total, one day spaced between two administrations for all the experiments. At the end of experiments, the tumors were removed and weighed, and the tumor inhibition ratio (TIR) was calculated. Pharmaceutical efficacy was considered with TIR≧40% and P<0.05, after statistical analysis.
The prepared solution was filtered through 0.45 and 0.22 μm membrane for sterilization, divided into stock aliquots, and stored at 4° C. for future use. The stock aliquot was further diluted with sterilized PBS (pH=7.4) to the required concentration before drug administration.
5-FU, CTX, and carboplatin solutions were freshly prepared in normal saline before use. […] Mice with the same sex were used in any individual experiment.
S180 cell line was from S180 bearing mice, and was intraperitoneally passaged in Kunming mouse.
Carcinoma inoculation and drug treatment: To each mouse, 0.2 ml of the S180 and H22 cell suspensions (2.5×10^6 cells/ml) were subcutaneously injected into the right axillary region (a total of 5×10^5 cells per mouse), respectively. On the second day, the animals were grouped at random and drugs were administered accordingly. […] The drugs were given once every other day with a total of 6-8 treatments.
Determination of tumor weight and calculation of TIR (tumor inhibition ratio), were as follows. Body weight was recorded on the day after the last drug administration and animals were then sacrificed. The carcinoma was removed and weighed, and TIR (%) was calculated according the following formula: […]

[3] = carboplatin experiment, carboplatin 25 mg/kg, ip alone

O=C1c2c(O)cc(O)cc2O[C@H](c2cc(O)c(O)c(O)c2)[C@H]1O [AMP-DMSO, AMPelopsin, reference compound]
IC50 ([1]; K562, 72 h): 4.09 µg/mL (≈ 12.8 µM) | IC50 ([1]; K562, after drug exposure for 48 h and 72 h): 32.3 µg/mL (≈ 101 µM) | IC50 ([1]; K562, cell treatment for 48 h): 32.3 µg/mL (≈ 101 µM) | Solubility in water [2]: does not dissolve | LD50 at 7 day (in vivo): 1000 mg/kg | LD50 at 7 day (in vivo; iv): 1000 mg/kg

O=c1[nH]cc(F)c(=O)[nH]1 [5-FU, reference compound]
TIR (%) (S180 carcinoma; 5-FU experiment, 5-FU 20 mg/kg, ip alone): 45.55% | Tumor weight (g) (X ± SD) (S180 carcinoma; 5-FU experiment, 5-FU 20 mg/kg, ip alone, 11 days before sacrifice): 1.08 ± 0.60 g

O.O.O.O.O.O=C1c2c(O)cc([O-])cc2OC(c2cc([O-])c(O)c([O-])c2)C1[O-].[Na+].[Na+].[Na+].[Na+] (stereo not shown) [AMP-Na, pentahydrate of the AMPelopsin unsaturated sodium salt]
IC50 in killing K562 cells ([1]; 48 h): 29.56 µg/mL | Killing effects towards K562 cells, AMP-Na compared with AMP-DMSO ([1]; 48 h and 72 h): no significant difference | IC50 in killing K562 cells ([1]; 72 h): 4.23 µg/mL | IC50 in killing K562 cells ([1]; after drug exposure for 48 h and 72 h): 29.56 µg/mL | TIR (%) (S180 carcinoma; 5-FU experiment, AMP-Na 50 mg/kg, ip, alone or jointly with 5-FU): 4.43% | Tumor weight (g) (X ± SD) (S180 carcinoma; 5-FU experiment, AMP-Na 50 mg/kg, ip, alone or jointly with 5-FU, 11 days): 1.89 ± 0.75 g | TIR (%) (S180 carcinoma; 5-FU experiment, AMP-Na 75 mg/kg, ip, alone or jointly with 5-FU): 31.28% | Tumor weight (g) (X ± SD) (S180 carcinoma; 5-FU experiment, AMP-Na 75 mg/kg, ip, alone or jointly with 5-FU, 11 days): 1.36 ± 0.69 g | Tumor weight (g) (X ± SD) (S180 carcinoma; 5-FU experiment, AMP-Na 112 mg/kg, ip, alone or jointly with 5-FU, 11 days): 1.32 ± 0.78 g | TIR (%) (S180 carcinoma; 5-FU experiment, AMP-Na 112 mg/kg, ip, alone or jointly with 5-FU, sodium salt): 33.49% | TIR (%) (S180 carcinoma; 5-FU experiment, AMP-Na 167 mg/kg, ip, alone or jointly with 5-FU): 4.45% | Tumor weight (g) (X ± SD) (S180 carcinoma; 5-FU experiment, AMP-Na 167 mg/kg, ip, alone or jointly with 5-FU, 11 days): 1.89 ± 0.59 g | T1R (%) (S180 carcinoma; CTX experiment, AMP-Na 50 mg/kg, ip, alone or jointly with CTX): 7.66% | Tumor weight (g) (X ± SD) (S180 carcinoma; CTX experiment, AMP-Na 50 mg/kg, ip, alone or jointly with CTX, 12 days): 1.66 ± 0.84 g | T1R (%) (S180 carcinoma; CTX experiment, AMP-Na 75 mg/kg, ip, alone or jointly with CTX): 6.84% | Tumor weight (g) (X ± SD) (S180 carcinoma; CTX experiment, AMP-Na 75 mg/kg, ip, alone or jointly with CTX, 12 days): 1.67 ± 1.03 g | T1R (%) (S180 carcinoma; CTX experiment, AMP-Na 112 mg/kg, ip, alone or jointly with CTX): −3.86% | Tumor weight (g) (X ± SD) (S180 carcinoma; CTX experiment, AMP-Na 112 mg/kg, ip, alone or jointly with CTX, 12 days): 1.86 ± 1.21 g | T1R (%) (S180 carcinoma; CTX experiment, AMP-Na 167 mg/kg, ip, alone or jointly with CTX): −16.25% | Tumor weight (g) (X ± SD) (S180 carcinoma; CTX experiment, AMP-Na 167 mg/kg, ip, alone or jointly with CTX, 12 days): 2.08 ± 1.07 g | TIR (%) (S180 carcinoma; carboplatin experiment, AMP-Na 50 mg/kg, ip, alone or jointly with carboplatin): 23.22% | Tumor weight (g) (X ± SD) (S180 carcinoma; carboplatin experiment, AMP-Na 50 mg/kg, ip, alone or jointly with carboplatin, 10 days): 1.12 ± 0.30 g | TIR (%) (S180 carcinoma; carboplatin experiment, AMP-Na 75 mg/kg, ip, alone or jointly with carboplatin): 3.99% | Tumor weight (g) (X ± SD) (S180 carcinoma; carboplatin experiment, AMP-Na 75 mg/kg, ip, alone or jointly with carboplatin, 10 days): 1.40 ± 0.58 g | TIR (%) (S180 carcinoma; carboplatin experiment, AMP-Na 112 mg/kg, ip, alone or jointly with carboplatin): 13.87% | Tumor weight (g) (X ± SD) (S180 carcinoma; carboplatin experiment, AMP-Na 112 mg/kg, ip, alone or jointly with carboplatin, 10 days): 1.26 ± 0.69 g | TIR (%) (S180 carcinoma; carboplatin experiment, AMP-Na 167 mg/kg, ip, alone or jointly with carboplatin): −7.47% | Tumor weight (g) (X ± SD) (S180 carcinoma; carboplatin experiment, AMP-Na 167 mg/kg, ip, alone or jointly with carboplatin, 10 days): 1.57 ± 0.71 g | Tumor suppression, AMP-Na alone (S180 carcinoma; single administration, S-180 bearing mice): no or weak tumor suppression

N.N.O=C([O-])C1(C(=O)[O-])CCC1.[Pt+2] [carboplatin, reference compound]
Body weight (g) after (S180 carcinoma; [3]): 18.57/25.75 g | TIR (%) (S180 carcinoma; [3]): 49.52% | Tumor weight (g) (X ± SD) (S180 carcinoma; carboplatin experiment, carboplatin 25 mg/kg, ip alone, 10 days before sacrifice): 0.74 ± 0.28 g
